According to patent publication US4642341A, “Carbapenem antibiotics” (priority 1985, dated 1987):
Values after ≈ are worked out from the molar mass of the structure shown. Like-named read-outs stand apart in the source and are kept apart here.

Legend:
S. pyogenes A-9604 = test: Minimum Inhibitory Concentration, tube dilution; type: cell-based; conditions: Streptococcus pyogenes, A9604, overnight 37° C.; table 6
[1] = test system: S. aureus A-9606 (Pen-res.); test: Minimum Inhibitory Concentration, tube dilution; type: cell-based; conditions: Staphylococcus aureus, Pen-res; table 6
[2] = Half-life in phosphate buffer pH 7.4; type: physicochemical; conditions: phosphate buffer, pH 7.4, τ1/2 (half-life)
Procedure: To a solution of p-nitrobenzyl 3-[2-(1-pyridinium)ethylthio)]-6α[1-(R)-hydroxyethyl]-7-oxo-1-azabicyclo(3.2.0)hept-2-ene-carboxylate diphenylphosphate (0.16 g, 0.22 mmol) in wet tetrahydrofuran (10mL) was added ether (10mL), potassium phosphate monobasic-sodium hydroxide buffer pH 7.4 (16 mL, 0.05 M) and 10% palladium on charcoal (0.16 g). The resulting mixture was hydrogenated under 40 psi for 1 h at 25° C. The two phases were separated and the organic phase was extracted with water (2×3 mL). The aqeuous solutions were combined, washed with ether (2×10 ml) and poured on top of a column (1.5×6.2 cm) pf μ-bondapak C-18 after the traces of organic solvents have been removed under vacuum. Elution of the column with water gave after lyophylization of the appropriate fractions a yellowish powder 0.062 g (84%), ir (KBr) .nu.max : 3700-3000 (OH), 1755 (C--O of β-lactam), 1630 (pyridinium), 1590 cm^-1 (carboxylate), ^1 Hmr (D2 O): 1.22 (3H, d, J=6.4 Hz, CH3 CHOH), 2.92 (d, J=9.1 Hz, H-4), 2.97 (d, J=9.1 Hz, H-4), 3.20 (dd, J=2.5 Hz, J=6.1 Hz, H-6), 3.44 (t, J=6.0 Hz, CH2 S), 3.93 (dd, J=9.1 Hz, J=2.5 Hz, H-5), 4.82 (t, J=6.0 Hz, CH2 N^+), 8.04 (m, Hm of pyridinium), 8.5 (m, Hp of pyridinium), 8.82 (dd, J=3.2. Hz, J=1.1 Hz, Ho of pyridinium), uv (H2 O) λ max : 259 (ε5800), 296 (ε7030) mμ, .tau.1/2 =13.5 h (measured at a concentration of 10^-4 M in phosphate buffer pH 7.4 at 36.8° C.).

H. influenzae A-9833 = test: Minimum Inhibitory Concentration, tube dilution; type: cell-based; conditions: Haemophilus influenzae, A9833; overnight 37° C.; table 6; read-out: MIC
P. aeruginosa A9843A [3] = test: animal or person; type: in vivo, mice; conditions: Pseudomonas aeruginosa, in Mus musculus, im, 3.5 h, read-out: PD50 /treatment
Procedure: (§1) Drugs were administered i.m. 0 to 2 hours post-infection (A9606) or 1 and 3.5 hours post-infection for the others.

[4] = test system: S. aureus A15097 (Meth-res.); test: Minimum Inhibitory Concentration, tube dilution; type: cell-based; conditions: Staphylococcus aureus, table 6
B. fragilis A22696 = test: Minimum Inhibitory Concentration, tube dilution; type: cell-based; conditions: Bacteroides fragilis
[5] = Pharmacokinetic parameters in the mouse after intramuscular dose; type: in vivo, mice; conditions: im, 20 mg/kg
From the text: Also shown is the urinary recovery in the mice.
Compounds were solubilized in 0.1 M phosphate buffer pH 7.

S. faecalis A20688 = test: Minimum Inhibitory Concentration, tube dilution; type: cell-based; conditions: Enterococcus faecalis
P. aeruginosa A21213 = test: Minimum Inhibitory Concentration, tube dilution; type: cell-based; conditions: Pseudomonas aeruginosa, A21213, overnight 37° C.; table 6; read-out: MIC
P. mirabilis A-9900 = test: Minimum Inhibitory Concentration, tube dilution; type: cell-based; conditions: Proteus mirabilis, A9900, overnight 37° C.; table 6
E. coli A15119 = test: Minimum Inhibitory Concentration, tube dilution; type: cell-based; conditions: Escherichia coli, A15119, overnight 37° C.; table 6
M. morganii A15153 = test: Minimum Inhibitory Concentration, tube dilution; type: cell-based; conditions: Morganella morganii, A15153, overnight 37° C.; table 6
S. aureus A9606 = test: Protective effect, intramuscular treatment of infected mice (table 7); type: in vivo; conditions: Staphylococcus aureus, A9606, im; i.m. 0 to 2 hours post-infection; ~1×10^9 organisms i.p.; read-out: PD50 /treatment
Procedure: as §1

P. aeruginosa A20481 = test: as above; type: in vivo; conditions: Pseudomonas aeruginosa, A20481, im; i.m. 1 and 3.5 hours post-infection; ~1×10^5 organisms i.p.; read-out: PD50 /treatment
Procedure: as §1

P. mirabilis A9900 = test: as above; type: in vivo; conditions: Proteus mirabilis, A9900, im; i.m. 1 and 3.5 hours post-infection; ~1×10^7 organisms i.p.; read-out: PD50 /treatment
Procedure: as §1

P. vulgaris A21559 = test: Minimum Inhibitory Concentration, tube dilution; type: cell-based; conditions: Proteus vulgaris, A21559, overnight 37° C.; table 6
E. cloacae A9659 = test: Minimum Inhibitory Concentration, tube dilution; type: cell-based; conditions: Enterobacter cloacae, A9659, overnight 37° C.; table 6; read-out: MIC
S. marcescens A20019 = test: Minimum Inhibitory Concentration, tube dilution; type: cell-based; conditions: Serratia marcescens, A20019, overnight 37° C.; table 6
S. aureus A-9537 = test: Minimum Inhibitory Concentration, tube dilution; type: cell-based; conditions: Staphylococcus aureus, table 6, read-out: MIC
B. fragilis A22862 = test: Minimum Inhibitory Concentration, tube dilution; type: cell-based; conditions: Bacteroides fragilis, overnight 37° C., table 6
H. influenzae A21518 = test: Minimum Inhibitory Concentration, tube dilution; type: cell-based; conditions: Haemophilus influenzae, overnight 37° C., table 6
E. coli A20341-1 = test: Minimum Inhibitory Concentration, tube dilution; type: cell-based; conditions: Escherichia coli, A203411, overnight 37° C.; table 6
S. pneumoniae A-9585 = test: Minimum Inhibitory Concentration, tube dilution; type: cell-based; conditions: Streptococcus pneumoniae, A9585, overnight 37° C.; table 6
P. aeruginosa A-9843A = test: Minimum Inhibitory Concentration, tube dilution; type: cell-based; conditions: Pseudomonas aeruginosa, A9843A, overnight 37° C.; table 6; read-out: MIC
E. cloacae A-9656 = test: Minimum Inhibitory Concentration, tube dilution; type: cell-based; conditions: Enterobacter cloacae, A9656; overnight 37° C.; table 6
P. rettgeri A22424 = test: Minimum Inhibitory Concentration, tube dilution; type: cell-based; conditions: Providencia rettgeri, overnight 37° C., table 6, read-out: MIC
K. pneumoniae A-9664 = test: Minimum Inhibitory Concentration, tube dilution; type: cell-based; conditions: Klebsiella pneumoniae, A9664, overnight 37° C.; table 6
P. aeruginosa A9843A [6] = test: animal or person; type: in vivo, mice; conditions: Pseudomonas aeruginosa, in Mus musculus, im, read-out: PD50 /treatment
From the text: The PD50 (dose in mg/kg required to give protection to 50% of the infected mice) is indicated.

| Compound | MIC (S. pyogenes A-9604) [µg/mL] | MIC [1] [µg/mL] | MIC (P. aeruginosa A21213) [µg/mL] | MIC (P. mirabilis A-9900) [µg/mL] | MIC (M. morganii A15153) [µg/mL] | MIC (P. vulgaris A21559) [µg/mL] | MIC (E. cloacae A9659) [µg/mL] | MIC (S. marcescens A20019) [µg/mL] | MIC (S. aureus A-9537; A9537, 50% serum) [µg/mL] | MIC (S. aureus A-9537; A9537, overnight 37° C.) [µg/mL] | MIC (B. fragilis A22862) [µg/mL] | MIC (E. coli A20341-1) [µg/mL] | MIC (S. pneumoniae A-9585) [µg/mL] | MIC (P. aeruginosa A-9843A) [µg/mL] | further results |
| --- | --- | --- | --- | --- | --- | --- | --- | --- | --- | --- | --- | --- | --- | --- | --- |
| Cc1cccc[n+]1CCSC1=C(C(=O)[O-])N2C(=O)[C@H]([C@@H](C)O)[C@H]2C1 [Example 7, 3-[2-(1-(2-methylpyridinium))ethylthio]-6α-[1-(R)-hydroxyethyl]-7-oxo-1-azabicyclo(3.2.0)hept-2-ene-carboxylate] | 0.03 (≈ 0.0861 µM) | 0.03 (≈ 0.0861 µM) | 1 (≈ 2.87 µM) | 0.03 (≈ 0.0861 µM) | 0.03 (≈ 0.0861 µM) | 0.03 (≈ 0.0861 µM) | 0.06 (≈ 0.172 µM) | 0.03 (≈ 0.0861 µM) | 0.03 (≈ 0.0861 µM) | 0.03 (≈ 0.0861 µM) | 0.06 (≈ 0.172 µM) | 0.03 (≈ 0.0861 µM) | 0.03 (≈ 0.0861 µM) | 4 (≈ 11.5 µM) | half-life at 100 µM [2]: 15 h; MIC (H. influenzae A-9833): > 32 µg/mL; ED50 (P. aeruginosa A9843A [3]): 0.9 mg/kg; MIC [4]: > 63 µg/mL; MIC (B. fragilis A22696): 0.5 µg/mL (≈ 1.44 µM); AUC ([5]; blood): 7000 ng·h/mL; Cmax ([5]; blood): 15000 ng/mL; half-life ([5]; blood, read-out: T1/2 (blood)): 0.183 h; dose excreted ([5]; urine, read-out: Urine Recovery): 49 ± 9%; MIC (S. faecalis A20688; A20688): 0.5 µg/mL (≈ 1.44 µM); MIC (E. coli A15119): 0.03 µg/mL (≈ 0.0861 µM); ED50 (S. aureus A9606): 0.6 mg/kg; ED50 (P. aeruginosa A20481): 1.4 mg/kg; ED50 (P. mirabilis A9900): ~22 mg/kg; MIC (H. influenzae A21518): > 32 µg/mL |
| Cc1cccc(C)[n+]1CCSC1=C(C(=O)[O-])N2C(=O)[C@H]([C@@H](C)O)[C@H]2C1 [Example 12] | 0.002 (≈ 0.00552 µM) | 0.016 (≈ 0.0441 µM) | 16 (≈ 44.1 µM) | 0.06 (≈ 0.166 µM) | 0.06 (≈ 0.166 µM) | 0.03 (≈ 0.0828 µM) | 0.25 (≈ 0.69 µM) | 0.06 (≈ 0.166 µM) | 0.03 (≈ 0.0828 µM) | 0.008 (≈ 0.0221 µM) | 0.06 (≈ 0.166 µM) | 0.016 (≈ 0.0441 µM) | 0.002 (≈ 0.00552 µM) | > 32 | MIC (E. cloacae A-9656): 0.5 µg/mL (≈ 1.38 µM); MIC (B. fragilis A22696; overnight 37° C., table 6, read-out: MIC): 0.25 µg/mL (≈ 0.69 µM); MIC (S. faecalis A20688; A20688, overnight 37° C., table 6, read-out: MIC): 0.25 µg/mL (≈ 0.69 µM); MIC (P. rettgeri A22424): 0.5 µg/mL (≈ 1.38 µM); MIC (K. pneumoniae A-9664): 0.06 µg/mL (≈ 0.166 µM); ED50 (P. aeruginosa A9843A [6]): > 25 mg/kg |
